Legend:
[1] = biological target: T1, human σ1 receptor (Homo sapiens, UniProt Q99720); assay: Human σ1 receptor radioligand assay; conditions: transfected HEK-293 membranes, 5 nM [3H](+)-pentazocine, 37° C. 120 minutes; + may also stand for 1-50% inhibition at 1 or 10 μM; read-out: Binding σ-1 Ki
T1 construct: expressed in transfected cells; host or cells: HEK-293
How it was run: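 Membranes (7 μg) were incubated with 5 nM [3H](+)-pentazocine in 50 mM Tris-HCl pH 8 for 120 min at 37° C. Non-specific binding was defined with 10 μM haloperidol. Values are % inhibition at 1 or 10 μM or Ki from five concentrations, read by filtration and scintillation counting.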

[2] = biological target: T2, human σ2/TMEM97 receptor (Homo sapiens, UniProt Q5BJF2); assay: Binding assay to human σ2/TMEM97 receptor; conditions: transfected HEK-293 membranes, 10 nM [3H]-DTG, 25° C. 120 minutes; + may also stand for 1-50% inhibition at 1 or 10 μM; read-out: Binding σ-2 Ki
T2 construct: expressed in transfected cells; host or cells: HEK-293
T2 sequence (Q5BJF2 whole entry): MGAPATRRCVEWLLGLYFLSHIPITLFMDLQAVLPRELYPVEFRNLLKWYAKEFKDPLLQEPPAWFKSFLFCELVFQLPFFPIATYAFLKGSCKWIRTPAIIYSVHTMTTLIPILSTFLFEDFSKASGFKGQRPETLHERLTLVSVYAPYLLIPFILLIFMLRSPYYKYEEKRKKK
How it was run: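 Membranes from transfected HEK-293 cells (15 µg) were incubated with 10 nM [3H]-DTG in 50 mM Tris-HCl pH 8.0 for 120 min at 25 °C, with 10 µM haloperidol defining non-specific binding. Filtration and scintillation counting followed. Compounds tested as % inhibition at 1 or 10 µM, or at five concentrations for Ki.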

T1 sequence (Q99720 whole entry): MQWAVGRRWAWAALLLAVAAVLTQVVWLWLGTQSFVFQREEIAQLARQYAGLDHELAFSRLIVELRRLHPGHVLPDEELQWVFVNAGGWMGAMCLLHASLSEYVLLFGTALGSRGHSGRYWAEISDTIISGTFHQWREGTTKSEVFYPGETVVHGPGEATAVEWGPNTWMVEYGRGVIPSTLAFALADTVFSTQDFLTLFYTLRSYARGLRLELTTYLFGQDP

Ki [1] [nM] | Ki [2] [nM] | Structure (SMILES)
100 to 500 | < 100 | CN(Cc1ccccc1)C1CCN(S(=O)(=O)c2ccc(N3CCCC3=O)nc2)CC1 [Example 148, 1-(5-((4-(Benzyl(methyl)ami-no)piperidin-1-yl)sulfonyl)pyridin-2-yl)pyrrolidin-2-one]
< 100 | 100 to 500 | O=C1OCCN1c1ccc(S(=O)(=O)N2CCC3(CCCN(CC4CCOCC4)C3)CC2)cn1 [Example 149, 3-(5-((2-((Tetrahydro-2H-pyran-4-yl)methyl)-2,9-diazaspiro[5.5]undecan-9-yl)sulfonyl)pyridin-2-yl)oxazolidin-2-one]
500 to 1000 | > 1000 | CC(C)(C)CN1CCCC2(CCN(S(=O)(=O)c3ccc(N4CCOC4=O)nc3)CC2)C1 [Example 150, 3-(5-((2-Neopentyl-2,9-diazaspiro[5.5]undecan-9-yl)sulfonyl)pyridin-2-yl)oxazolidin-2-one]
100 to 500 | < 100 | N#Cc1ccc(CN2CCCC3(CCN(S(=O)(=O)c4ccc(N5CCOC5=O)nc4)CC3)C2)cc1F [Example 151, 2-Fluoro-4-((9-((6-(2-oxooxazolidin-3-yl)pyridin-3-yl)sulfonyl)-2,9-diazaspiro[5.5]undecan-2-yl)methyl)benzonitrile]
> 1000 | > 1000 | N#Cc1cc(CN2CCCC3(CCN(S(=O)(=O)c4ccc(N5CCOC5=O)nc4)CC3)C2)ccc1F [Example 152, 2-Fluoro-5-((9-((6-(2-oxooxazolidin-3-yl)pyridin-3-yl)sulfonyl)-2,9-diazaspiro[5.5]undecan-2-yl)methyl)benzonitrile]
< 100 | < 100 | O=C1OCCN1c1ccc(S(=O)(=O)N2CCC3(CCN(CC4CCOCC4)CC3)C2)cn1 [Example 153, 3-(5-((8-((Tetrahydro-2H-pyran-4-yl)methyl)-2,8-diazaspiro[4.5]decan-2-yl)sulfonyl)pyridin-2-yl)oxazolidin-2-one]
< 100 | < 100 | CC(C)(C)CCN1CCCC2(CCN(S(=O)(=O)c3ccc(N4CCOC4=O)cn3)CC2)C1 [Example 154, 3-(6-((2-(3,3-Dimethylbutyl)-2,9-diazaspiro[5.5]undecan-9-yl)sulfonyl)pyridin-3-yl)oxazolidin-2-one]
< 100 | < 100 | O=C1OCCN1c1ccc(S(=O)(=O)N2CCCC3(CCN(Cc4ccccc4)CC3)C2)cn1 [Example 155, 3-(5-((9-Benzyl-2,9-diazaspiro[5.5]undecan-2-yl)sulfonyl)pyridin-2-yl)oxazolidin-2-one]
> 1000 | < 100 | O=C1OCCN1c1ccc(S(=O)(=O)N2CCC3(CCN(Cc4cc(F)ccc4F)CC3)CC2)cn1 [Example 156, 3-(5-((9-(2,5-Difluorobenzyl)-3,9-diazaspiro[5.5]undecan-yl)sulfonyl)pyridin-2-yl)oxazolidin-3-2-one]
> 1000 | < 100 | N#Cc1cc(CN2CCC3(CC2)CCN(S(=O)(=O)c2ccc(N4CCOC4=O)nc2)CC3)ccc1F [Example 157, 2-Fluoro-5-((9-((6-(2-oxooxazolidin-3-yl)pyridin-3-yl)sulfonyl)-3,9-diazaspiro[5.5]undecan-3-yl)methyl)benzonitrile]
< 100 | < 100 | O=C1OCCN1c1ccc(S(=O)(=O)N2CCCC3(CCN(CC4CCOCC4)CC3)C2)cn1 [Example 158, 3-(5-((9-((Tetrahydro-2H-pyran-4-yl)methyl)-2,9-diazaspiro[5.5]undecan-2-yl)sulfonyl)pyridin-2-yl)oxazolidin-2-one]
< 100 | < 100 | O=C1OCCN1c1ccc(S(=O)(=O)N2CCCC3(CCN(Cc4ccccc4F)CC3)C2)cn1 [Example 159, 3-(5-((9-(2-Fluorobenzyl)-2,9-diazaspiro[5.5]undecan-2-yl)sulfonyl)pyridin-2-yl)oxazolidin-2-one]
< 100 | < 100 | O=C1OCCN1c1ccc(S(=O)(=O)N2CCCC3(CCN(Cc4cc(F)ccc4F)CC3)C2)cn1 [Example 160, 3-(5-((9-(2,5-Difluorobenzyl)-2,9-diazaspiro[5.5]undecan-2-yl)sulfonyl)pyridin-2-yl)oxazolidin-2-one]
< 100 | < 100 | N#Cc1cc(CN2CCC3(CCCN(S(=O)(=O)c4ccc(N5CCOC5=O)nc4)C3)CC2)ccc1F [Example 161, 2-Fluoro-5-((2-((6-(2-oxooxazolidin-3-yl)pyridin-3-yl)sulfonyl)-2,9-diazaspiro[5.5]undecan-9-yl)methyl)benzonitrile]
> 1000 | < 100 | O=C1OCCN1c1ccc(S(=O)(=O)N2CCC3(CCN(Cc4cc(F)ccc4F)CC3)C2)cn1 [Example 162, 3-(5-((8-(2,5-Difluorobenzyl)-2,8-diazaspiro[4.5]decan-2-yl)sulfonyl)pyridin-2-yl)oxazolidin-2-one]
100 to 500 | 100 to 500 | O=C1OCCN1c1ccc(S(=O)(=O)N2CCC3(CCN(Cc4ccccc4F)CC3)C2)cn1 [Example 163, 3-(5-((8-(2-Fluorobenzyl)-2,8-diazaspiro[4.5]decan-2-yl)sulfonyl)pyridin-2-yl)oxazolidin-2-one]
100 to 500 | 100 to 500 | N#Cc1ccc(CN2CCC3(CC2)CCN(S(=O)(=O)c2ccc(N4CCOC4=O)nc2)C3)cc1F [Example 164, 2-Fluoro-4-((2-((6-(2-oxooxazolidin-3-yl)pyridin-3-yl)sulfonyl)-2,8-diazaspiro[4.5]decan-8-yl)methyl)benzonitrile]
> 1000 | 100 to 500 | N#Cc1cc(CN2CCC3(CC2)CCN(S(=O)(=O)c2ccc(N4CCOC4=O)nc2)C3)ccc1F [Example 165, 2-Fluoro-5-((2-((6-(2-oxooxazolidin-3-yl)pyridin-3-yl)sulfonyl)-2,8-diazaspiro[4.5]decan-8-yl)methyl)benzonitrile]
500 to 1000 | < 100 | O=C1OCCN1c1ccc(S(=O)(=O)N2CCC3(CCN(Cc4ccccc4F)CC3)CC2)cn1 [Example 166, 3-(5-((9-(2-Fluorobenzyl)-3,9-diazaspiro[5.5]undecan-3-yl)sulfonyl)pyridin-2-yl)oxazolidin-2-one]
> 1000 | 100 to 500 | CN(Cc1ccccc1)[C@H]1CC[C@H](NS(=O)(=O)c2ccc(N3CCOC3=O)nc2)CC1 [Example 167, N-((1 r,4r)-4-(Benzyl(methyl)amino)cyclohexyl)-6-(2-oxooxazolidin-3-yl)pyridine-3-sulfonamide]
< 100 | < 100 | CN(CCC(C)(C)C)C1CCN(S(=O)(=O)c2ccc(N3CCC(F)(F)CC3)nc2)CC1 [Example 168, 1-((6-(4,4-Difluoropiperidin-1-yl)pyridin-3-yl)sulfonyl)-N-(3,3-dimethylbutyl)-N-methylpiperidin-4-amine]
100 to 500 | < 100 | CN(CC1CCOCC1)C1CCN(S(=O)(=O)c2ccc(N3CCC(F)(F)CC3)nc2)CC1 [Example 169, 1-((6-(4,4-Difluoropiperidin-1-yl)pyridin-3-yl)sulfonyl)-N-methyl-N-((tetrahydro-2H-pyran-4-yl)methyl)piperidin-4-amine]
> 1000 | < 100 | O=S(=O)(c1ccc(N2CCC(F)(F)CC2)nc1)N1CCC(NCc2ccccc2)CC1 [Example 170]
> 1000 | < 100 | CN(Cc1ccc(C#N)cc1F)C1CCN(S(=O)(=O)c2ccc(N3CCC(F)(F)CC3)nc2)CC1 [Example 171, 4-(((1-((6-(4,4-Difluoropiperidin-1-yl)pyridin-3-yl)sulfonyl)piperidin-4-yl)(methyl)amino)methyl)-3-fluorobenzonitrile]

— patent US20240254115A1 (ACONDICIONAMIENTO TARRASENSE, priority 2021, published 2024)
